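Briefly, cells in 96-well plates were exposed to five compound concentrations for 48 h, and endpoints were estimated by linear interpolation. TGI is the concentration that stops growth completely.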
Columns and labels:
Assay in all cases: NCI tumour cell line growth inhibition, 48 h
MDA-MB-435 = tested on: MDA-MB-435
786-0 renal = tested on: 786-0 renal
HCT-116 colon = tested on: HCT-116 colon
RPMI-8226 leukemia = tested on: RPMI-8226 leukemia
HT29 colon = tested on: HT29 colon
PC-3 prostate = tested on: PC-3 prostate
CCRF-CEM leukemia = tested on: CCRF-CEM leukemia
SNB-19 CNS = tested on: SNB-19 CNS
SK-MEL-5 melanoma = tested on: SK-MEL-5 melanoma
TK-10 renal = tested on: TK-10 renal
CAKI-1 renal = tested on: CAKI-1 renal
SF-295 CNS = tested on: SF-295 CNS
MCF7 breast = tested on: MCF7 breast
MOLT-4 leukemia = tested on: MOLT-4 leukemia

| SMILES | TGI (MDA-MB-435) | TGI (786-0 renal) | TGI (HCT-116 colon) | TGI (RPMI-8226 leukemia) | TGI (HT29 colon) | TGI (PC-3 prostate) | TGI (CCRF-CEM leukemia) | TGI (SNB-19 CNS) | TGI (SK-MEL-5 melanoma) | TGI (TK-10 renal) | TGI (CAKI-1 renal) | TGI (SF-295 CNS) | TGI (MCF7 breast) | TGI (MOLT-4 leukemia) |
| --- | --- | --- | --- | --- | --- | --- | --- | --- | --- | --- | --- | --- | --- | --- |
| Cc1c(/C=N/NC(=S)Nc2cccc(Cl)c2)c(=O)n(-c2ccccc2)n1C | > 100 µM | 37 µM | > 100 µM | > 100 µM | > 100 µM | > 100 µM | > 100 µM | 37.1 µM | > 100 µM | 44.3 µM | 25.7 µM | 28 µM | 62.5 µM | > 100 µM |
| CNC(C)Cc1ccccc1O (stereo unspecified) | – | > 100 µM | > 100 µM | > 100 µM | > 100 µM | – | > 100 µM | > 100 µM | > 100 µM | > 100 µM | > 100 µM | > 100 µM | – | > 100 µM |
| CCCCCCCC(=O)OC[C@@H](C[As](=O)(O)O)OC(=O)CCCCCCC | – | 24.7 µM | 22.6 µM | 46.2 µM | 28.1 µM | – | 9.55 µM | 27.3 µM | 26.9 µM | – | – | 28.9 µM | – | 18.6 µM |
| O=S1(=O)NNC(=NCc2ccc(Cl)c(Cl)c2)c2ccccc21 | – | > 100 µM | > 100 µM | 61 µM | > 100 µM | – | 81 µM | > 100 µM | > 100 µM | – | > 100 µM | > 100 µM | – | 98.8 µM |
| C/C(=N/NC(=O)c1ccncc1)c1ccc(NC(=O)C(=O)Nn2c(=S)[nH]c3ccccc3c2=O)cc1 | > 100 µM | > 100 µM | > 100 µM | > 100 µM | > 100 µM | > 100 µM | > 100 µM | > 100 µM | > 100 µM | > 100 µM | > 100 µM | > 100 µM | > 100 µM | > 100 µM |
| COc1cc2cc[n+](C)c(Cc3ccccc3)c2cc1OC | – | > 100 µM | > 100 µM | > 100 µM | > 100 µM | – | > 100 µM | > 100 µM | > 100 µM | > 100 µM | – | > 100 µM | – | > 100 µM |
| O=C1NCN(c2ccccc2)C12CCN(CCc1ccc3[nH]c(=S)[nH]c3c1)CC2 | 35.6 µM | > 100 µM | > 100 µM | 59.3 µM | > 100 µM | 75.1 µM | 22 µM | > 100 µM | 31.7 µM | 92.9 µM | > 100 µM | > 100 µM | 92.8 µM | > 100 µM |
| O=C1CSC(/C(=C/c2ccccc2)c2nc3ccccc3[nH]2)=N1 | – | > 100 µM | > 100 µM | – | > 100 µM | – | > 100 µM | > 100 µM | 38.3 µM | > 100 µM | > 100 µM | > 100 µM | – | > 100 µM |
| CC12CCC([C@H](N3CCOCC3)/C1=N\OCCN1CCCC1)C2(C)C (stereo partly specified) | – | > 100 µM | > 100 µM | > 100 µM | > 100 µM | – | > 100 µM | > 100 µM | > 100 µM | > 100 µM | > 100 µM | > 100 µM | – | > 100 µM |
| COc1ccc(-c2cnoc2-c2ccc(OC)c(OC)c2)cc1OC | – | 6.9 µM | 12.6 µM | 18.5 µM | 11.1 µM | – | 13.4 µM | 98.6 µM | 6.71 µM | 43.2 µM | > 68.1 µM | 4.27 µM | – | 35.9 µM |
| [N-]=[N+]=Nc1ccc(NCCCCCC(=O)ON2C(=O)CCC2=O)c([N+](=O)[O-])c1 | > 100 µM | > 100 µM | > 100 µM | – | > 100 µM | > 100 µM | – | > 100 µM | > 100 µM | > 100 µM | > 100 µM | > 100 µM | > 100 µM | > 100 µM |
| CC1C2=C(CC(C)(C)CC2=O)NC2=C1C(=O)CC(C)(C)C2 | – | > 100 µM | – | > 100 µM | > 100 µM | > 100 µM | > 100 µM | > 100 µM | > 100 µM | > 100 µM | > 100 µM | – | > 100 µM | > 100 µM |
| O=c1[nH][nH]c(=O)[nH]1 | – | > 100 µM | > 100 µM | > 100 µM | > 100 µM | – | > 100 µM | > 100 µM | > 100 µM | > 100 µM | > 100 µM | > 100 µM | – | > 100 µM |
| C=CCC1C(=O)C(C(=O)OC)N2CCc3c([nH]c4ccccc34)C12 (stereo unspecified) | – | > 100 µM | > 100 µM | > 100 µM | > 100 µM | – | > 100 µM | > 100 µM | > 100 µM | > 100 µM | > 100 µM | > 100 µM | – | > 100 µM |
| COc1ccc(N(C)CN(C)c2nc(N(C)C)nc(N(C)C)n2)cc1 | – | > 100 µM | > 100 µM | > 100 µM | > 100 µM | – | > 100 µM | > 100 µM | > 100 µM | > 100 µM | > 100 µM | > 100 µM | – | > 100 µM |
| CC1(c2cccc3c2C2(O)C=CC4(CCC32)OCCO4)OCCO1 (stereo unspecified) | – | > 100 µM | > 100 µM | > 100 µM | > 100 µM | – | > 100 µM | > 100 µM | > 100 µM | > 100 µM | > 100 µM | > 100 µM | – | > 100 µM |

Reference: PubChem BioAssay (NCI)
